Source: the supplement of paper PMC10307832

Assays:
Assay in all cases: relative viability (nuclei count vs DMSO), 5 days (fraction); higher = more cells survive
A-427 = test system: A-427
In short: (§1)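 Values are medians from duplicate plates. Each reflects relative viability, defined as the nuclei count of treated wells over that of vehicle wells. Lung cancer cell lines in 1536-well plates were pin-tool dosed one day after seeding with one drug alone or with a fixed anchor-drug dose plus five library-drug doses (not always all listed) in √10 steps, then fixed, stained and imaged at 4× after 5 days.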

NCI-H2126 = test system: NCI-H2126
In short: as §1

NCI-H460 = test system: NCI-H460
In short: as §1

ChaGo-K-1 = test system: ChaGo-K-1
In short: as §1

NCI-H1648 = test system: NCI-H1648
In short: as §1

NCI-H441 = test system: NCI-H441
In short: as §1

NCI-H1993 = test system: NCI-H1993
In short: as §1

RERF-LC-KJ = test system: RERF-LC-KJ
In short: as §1

HCC-44 = test system: HCC-44
In short: as §1

NCI-H650 = test system: NCI-H650
In short: as §1

SW 1573 = test system: SW 1573
In short: as §1

201T = test system: 201T
In short: as §1

LCLC-97TM1 = test system: LCLC-97TM1
In short: as §1

NCI-H1734 = test system: NCI-H1734
In short: as §1

COR-L23 = test system: COR-L23
In short: as §1

HCC-366 = test system: HCC-366
In short: as §1

LOU-NH91 = test system: LOU-NH91
In short: as §1

NCI-H1650 = test system: NCI-H1650
In short: as §1

HCC-15 = test system: HCC-15
In short: as §1

NCI-H2009 = test system: NCI-H2009
In short: as §1

NCI-H2023 = test system: NCI-H2023
In short: as §1

HARA = test system: HARA
In short: as §1

HCC-78 = test system: HCC-78
In short: as §1

LCLC-103H = test system: LCLC-103H
In short: as §1

Question: For `CCCCCCCCCCCC1=C(O)C(=O)C=C(O)C1=O` [Embelin] + COc1cccc2cc(-c3nc([C@H]4CC[C@H](C(=O)O)CC4)n4ncnc(N)c34)[nH]c12 [OSI-027] (partner 0.5 µM), which relative viability (A-427; first compound 0.08 µM) is on record?
Answer: 0.424

Question: What about the relative viability (A-427; first compound 0.8 µM) of the same molecule?
Answer: 0.495

Question: And the relative viability (A-427; first compound 2.53 µM)?
Answer: 0.439

Question: And the relative viability (A-427; first compound 8 µM)?
Answer: 0.497

Question: And the relative viability (NCI-H2126; first compound 0.08 µM)?
Answer: 0.666

Question: What about the relative viability (NCI-H2126; first compound 0.8 µM) of the same molecule?
Answer: 0.746

Question: What about the relative viability (NCI-H2126; first compound 2.53 µM) of the same molecule?
Answer: 0.804

Question: And the relative viability (NCI-H2126; first compound 8 µM)?
Answer: 0.795

Question: What about the relative viability (NCI-H460; first compound 0.08 µM) of the same molecule?
Answer: 0.683

Question: And the relative viability (NCI-H460; first compound 0.8 µM)?
Answer: 0.88

Question: What about the relative viability (NCI-H460; first compound 2.53 µM) of the same molecule?
Answer: 0.958

Question: What about the relative viability (NCI-H460; first compound 8 µM) of the same molecule?
Answer: 0.751

Question: And the relative viability (ChaGo-K-1; first compound 0.08 µM)?
Answer: 0.572

Question: What about the relative viability (ChaGo-K-1; first compound 0.8 µM) of the same molecule?
Answer: 0.636

Question: What about the relative viability (ChaGo-K-1; first compound 2.53 µM) of the same molecule?
Answer: 0.699

Question: And the relative viability (ChaGo-K-1; first compound 8 µM)?
Answer: 0.556

Question: What about the relative viability (NCI-H1648; first compound 0.08 µM) of the same molecule?
Answer: 0.263

Question: What about the relative viability (NCI-H1648; first compound 0.8 µM) of the same molecule?
Answer: 0.293

Question: And the relative viability (NCI-H1648; first compound 2.53 µM)?
Answer: 0.248

Question: And the relative viability (NCI-H1648; first compound 8 µM)?
Answer: 0.278

Question: What about the relative viability (NCI-H441; first compound 0.08 µM) of the same molecule?
Answer: 0.688

Question: What about the relative viability (NCI-H441; first compound 0.8 µM) of the same molecule?
Answer: 0.742

Question: And the relative viability (NCI-H441; first compound 2.53 µM)?
Answer: 0.673

Question: What about the relative viability (NCI-H441; first compound 8 µM) of the same molecule?
Answer: 0.647

Question: What about the relative viability (NCI-H1993; first compound 0.08 µM) of the same molecule?
Answer: 0.577

Question: What about the relative viability (NCI-H1993; first compound 0.8 µM) of the same molecule?
Answer: 0.556

Question: What about the relative viability (NCI-H1993; first compound 2.53 µM) of the same molecule?
Answer: 0.606

Question: What about the relative viability (NCI-H1993; first compound 8 µM) of the same molecule?
Answer: 0.547

Question: And the relative viability (RERF-LC-KJ; first compound 0.08 µM)?
Answer: 0.585

Question: What about the relative viability (RERF-LC-KJ; first compound 0.8 µM) of the same molecule?
Answer: 0.529

Question: What about the relative viability (RERF-LC-KJ; first compound 2.53 µM) of the same molecule?
Answer: 0.545

Question: And the relative viability (RERF-LC-KJ; first compound 8 µM)?
Answer: 0.494

Question: And the relative viability (HCC-44; first compound 0.08 µM)?
Answer: 0.481

Question: And the relative viability (HCC-44; first compound 0.8 µM)?
Answer: 0.479

Question: What about the relative viability (HCC-44; first compound 2.53 µM) of the same molecule?
Answer: 0.344

Question: And the relative viability (HCC-44; first compound 8 µM)?
Answer: 0.323

Question: And the relative viability (NCI-H650; first compound 0.08 µM)?
Answer: 0.421

Question: What about the relative viability (NCI-H650; first compound 0.8 µM) of the same molecule?
Answer: 0.623

Question: And the relative viability (NCI-H650; first compound 2.53 µM)?
Answer: 0.388

Question: What about the relative viability (NCI-H650; first compound 8 µM) of the same molecule?
Answer: 0.549

Question: And the relative viability (SW 1573; first compound 0.08 µM)?
Answer: 0.6

Question: What about the relative viability (SW 1573; first compound 0.8 µM) of the same molecule?
Answer: 0.768

Question: What about the relative viability (SW 1573; first compound 2.53 µM) of the same molecule?
Answer: 0.896

Question: And the relative viability (SW 1573; first compound 8 µM)?
Answer: 0.573

Question: And the relative viability (201T; first compound 0.08 µM)?
Answer: 0.72

Question: What about the relative viability (201T; first compound 0.8 µM) of the same molecule?
Answer: 0.883

Question: What about the relative viability (201T; first compound 2.53 µM) of the same molecule?
Answer: 0.746

Question: What about the relative viability (201T; first compound 8 µM) of the same molecule?
Answer: 0.83

Question: And the relative viability (LCLC-97TM1; first compound 0.08 µM)?
Answer: 0.376

Question: What about the relative viability (LCLC-97TM1; first compound 0.8 µM) of the same molecule?
Answer: 0.638

Question: What about the relative viability (LCLC-97TM1; first compound 2.53 µM) of the same molecule?
Answer: 0.494

Question: What about the relative viability (LCLC-97TM1; first compound 8 µM) of the same molecule?
Answer: 0.589

Question: What about the relative viability (NCI-H1734; first compound 0.08 µM) of the same molecule?
Answer: 0.648

Question: And the relative viability (NCI-H1734; first compound 0.8 µM)?
Answer: 0.771

Question: What about the relative viability (NCI-H1734; first compound 2.53 µM) of the same molecule?
Answer: 0.618

Question: What about the relative viability (NCI-H1734; first compound 8 µM) of the same molecule?
Answer: 0.608

Question: What about the relative viability (COR-L23; first compound 0.08 µM) of the same molecule?
Answer: 0.756

Question: And the relative viability (COR-L23; first compound 0.8 µM)?
Answer: 0.92

Question: And the relative viability (COR-L23; first compound 2.53 µM)?
Answer: 0.923

Question: What about the relative viability (COR-L23; first compound 8 µM) of the same molecule?
Answer: 0.921

Question: And the relative viability (HCC-366; first compound 0.08 µM)?
Answer: 0.926

Question: What about the relative viability (HCC-366; first compound 0.8 µM) of the same molecule?
Answer: 1.16

Question: And the relative viability (HCC-366; first compound 2.53 µM)?
Answer: 1.03

Question: What about the relative viability (HCC-366; first compound 8 µM) of the same molecule?
Answer: 0.905

Question: What about the relative viability (LOU-NH91; first compound 0.08 µM) of the same molecule?
Answer: 0.691

Question: What about the relative viability (LOU-NH91; first compound 0.8 µM) of the same molecule?
Answer: 0.851

Question: And the relative viability (LOU-NH91; first compound 2.53 µM)?
Answer: 0.743

Question: What about the relative viability (LOU-NH91; first compound 8 µM) of the same molecule?
Answer: 0.755

Question: What about the relative viability (NCI-H1650; first compound 0.08 µM) of the same molecule?
Answer: 0.791

Question: What about the relative viability (NCI-H1650; first compound 0.8 µM) of the same molecule?
Answer: 0.801

Question: What about the relative viability (NCI-H1650; first compound 2.53 µM) of the same molecule?
Answer: 0.653

Question: And the relative viability (NCI-H1650; first compound 8 µM)?
Answer: 0.598

Question: And the relative viability (HCC-15; first compound 0.08 µM)?
Answer: 0.666

Question: And the relative viability (HCC-15; first compound 0.8 µM)?
Answer: 0.758

Question: And the relative viability (HCC-15; first compound 2.53 µM)?
Answer: 0.721

Question: What about the relative viability (HCC-15; first compound 8 µM) of the same molecule?
Answer: 0.625

Question: And the relative viability (NCI-H2009; first compound 0.08 µM)?
Answer: 0.728

Question: And the relative viability (NCI-H2009; first compound 0.8 µM)?
Answer: 0.736

Question: What about the relative viability (NCI-H2009; first compound 2.53 µM) of the same molecule?
Answer: 0.492

Question: What about the relative viability (NCI-H2009; first compound 8 µM) of the same molecule?
Answer: 0.594

Question: And the relative viability (NCI-H2023; first compound 0.08 µM)?
Answer: 0.377

Question: What about the relative viability (NCI-H2023; first compound 0.8 µM) of the same molecule?
Answer: 0.468

Question: What about the relative viability (NCI-H2023; first compound 2.53 µM) of the same molecule?
Answer: 0.385

Question: What about the relative viability (NCI-H2023; first compound 8 µM) of the same molecule?
Answer: 0.398

Question: And the relative viability (HARA; first compound 0.08 µM)?
Answer: 0.5

Question: What about the relative viability (HARA; first compound 0.8 µM) of the same molecule?
Answer: 0.701

Question: And the relative viability (HARA; first compound 2.53 µM)?
Answer: 0.601

Question: What about the relative viability (HARA; first compound 8 µM) of the same molecule?
Answer: 0.526

Question: And the relative viability (HCC-78; first compound 0.08 µM)?
Answer: 0.371

Question: And the relative viability (HCC-78; first compound 0.8 µM)?
Answer: 0.369

Question: And the relative viability (HCC-78; first compound 2.53 µM)?
Answer: 0.343

Question: What about the relative viability (HCC-78; first compound 8 µM) of the same molecule?
Answer: 0.41

Question: And the relative viability (LCLC-103H; first compound 0.08 µM)?
Answer: 0.467

Question: And the relative viability (LCLC-103H; first compound 0.8 µM)?
Answer: 0.492

Question: What about the relative viability (LCLC-103H; first compound 2.53 µM) of the same molecule?
Answer: 0.495

Question: What about the relative viability (LCLC-103H; first compound 8 µM) of the same molecule?
Answer: 0.423
